The test system of data set [1] is neuron loss following brain ischemia and reperfusion injury. The data set can be described thus: neuronal density after 5 min bilateral carotid occlusion, compound i.p. 30 min before ischemia (Example 3). The format is in vivo, gerbil. Conditions: for Neuronal nuclei/100 micron field: 30 min before ischemia. Here is the method:
In the experiments a test compound was administered to groups of six gerbils i.p. as a single dose 30 min before 5 min bilateral carotid occlusion. The density of neuronal nuclei in a 100 micron was measured. Two controls were present--controls which received no test compound and controls which received no test compound and no brain ischemia.

Data set [2] shares this test system. The experiment in a line: neuronal density, post-ischemia treatment, compound i.p. 30 min after reperfusion following 5 min ischemia (Example 4). The format is in vivo, gerbil.
For data set [3], the system named is infarct volume following middle cerebral occlusion. The experiment in a line: infarct volume after middle cerebral occlusion (Example 7). The format is in vivo, C57BL/6J mice. Conditions: from 60 min after occlusion for 24 hours. Here is the method: The ability of the compound of the invention to reduce infarct volume following an ischemic event was determined.

A short description of data set [4]: doses demonstrated to be possible. Conditions: up to and higher.
Data set [5] has as its system glutamine synthetase (GS). The data set can be described thus: protection of glutamine synthetase against βAP 25-35 (Example 11). The class given is biochemical, gerbil. Conditions: co-incubation with 0.4 mg/ml BAP 25-35. Here is the method:
(§1) Cytosolic fractions from gerbil neocortex were prepared and enzyme activities determined. Samples were incubated in the presence of different concentrations of the peptide for 10 min prior to assay. Solid symbols represent the effects of the naturally occurring 25-35 fragment. […] Each point is the mean (+/- s.e.) of 5 observations. βAP derived and other cellular sources of free radicals are an important determinant of the initiation and progression of AD.
(§2) Each point is the mean (+/- s.e.) of 3 observations.

Data set [6] deals with acute lethal effects of adriamycin. The data set can be described thus: adriamycin acute lethality and its prevention by pretreatment, C57BL/6J mice (Example 13). The format is in vivo. Conditions: up to 300 mg/kg i.p., without adriamycin. From the text:
(§3) All injections were intraperitoneal.

Data set [7] deals with neuronal loss following ischemia. The experiment in a line: protection from neuronal loss, i.v. 60 min after reperfusion onset following 5 min ischemia (Example 5). The class given is in vivo, gerbil. Conditions: for protection for neuronal loss (neuronal density): 60 min after reperfusion onset.
Data set [8] in a line: solubility in water. The class given is physicochemical. Conditions: free acid.
In data set [9] the test system is temporal/spatial short term memory following ischemia. The data set can be described thus: 8-arm radial maze test 24 hours after ischemia (Example 6). The format is in vivo, gerbil. Here is the method: Brain injury can manifest itself as behavioral changes. In this experiment, young adult (3-4 months of age) gerbils were tested to determine their ability to perform an 8-arm maze test 24 hours following an ischemic event as described in Example 1. As compared to nonischemic animals, when untreated they committed many more errors. PBN and compound I were administered to some of the test animals.

Data set [10] has as its system lethality from 10 min ischemia. The data set can be described thus: lethality protection in aged gerbils from 10 min ischemia (Example 8). The format is in vivo, gerbil. Conditions: 30 min before ischemia.
Data set [11] has as its system acute lethal effects of adriamycin. The data set can be described thus: comparative tests: nitrone pretreatment combined with adriamycin (Example 13). The format is in vivo, mouse. Conditions: doses of Compound I up to 300 mg/kg with adriamycin.
From the text: as §3

Data set [12] in a line: body temperature depression (Example 10). The class given is in vivo. Conditions: levels as high as 1000 mg/kg, mice and gerbils. From the text: Another undesirable systemic effect which has been observed in vivo with nitrone radical traps is a depression in body temperature. This toxicity can have serious health consequences and also can complicate diagnosis of other conditions.

The subject of data set [13] is infarct volume following middle cerebral artery occlusion. The experiment in a line: rat focal ischemia model, permanent middle cerebral artery occlusion (Example 12). The format is in vivo, Sprague Dawley rats. Conditions: both studies: 100 mg/kg i.p. then 4.2 mg/kg/hr i.v., or 10 mg/kg i.p. then 0.42 mg/kg/hr i.v., up to 24 h; 3 days post stroke. From the text: A pair of studies were done to determine the efficacy of Compound I in a rat focal ischemia model. In this model, Sprague Dawley rats (200-300 g) underwent a permanent middle cerebral artery occlusion (MCAO) to induce a focal stroke.
The rats were sacrificed 3 days post stroke, the tissue was processed histologically using triphenyltetrazolium staining techniques, and the infarct volume, the area of total cell necrosis, was quantitated using image analysis.

The test system of data set [14] is creatine kinase (CK). The experiment in a line: protection of creatine kinase against βAP 25-35 (Example 11). The class given is biochemical, gerbil. Conditions: co-incubation with 0.4 mg/ml BAP 25-35. Here is the method:
as §1, §2

Data set [15] deals with Sprague Dawley rats. The experiment in a line: acute toxicity in male Sprague Dawley rats (Example 14). The format is in vivo, rat. Conditions: 1000 mg/kg i.p., after 3 days. Here is the method:
The compounds were administered at 1000 mg/kg, i.p., to groups of 6 rats. After 3 days lethality was assessed.

Data set [16] relates to acute lethal effects of adriamycin. The experiment in a line: adriamycin acute lethality and its prevention by pretreatment, DBA/2J mice (Example 13). Here is the method:
(§4) All injections were intraperitoneal. The acute lethality of adriamycin ranged from 10 to 30 mg/kg.

The nature of data set [17]: adriamycin acute lethality and its prevention by pretreatment, C57BL/6J mice (Example 13). The class given is in vivo. Conditions: mouse, in vivo, ip.
From the text: as §3

Data set [18] can be described thus: adriamycin acute lethality and its prevention by pretreatment, DBA/2J mice (Example 13). Conditions: mouse, in vivo, ip. Here is the method: as §4
For data set [19], the system named is embryonic hippocampal neuronal and neuronal/glial cultures. Conditions: extended period of co-incubation; cited from earlier work.
The subject of data set [20] is neuronal cultures. Conditions: Dichlorofluorescein and increased intracellular free calcium Fura-2; cited from earlier work.
The subject of data set [21] is rat brains. Conditions: infused into rat brains; cited from earlier work.
For data set [22], the system named is creatine kinase (CK). The experiment in a line: inactivation of creatine kinase by βAP fragments in cytosolic fractions of neocortex (Example 11). The class given is biochemical, gerbil. Conditions: 10 min incubation prior to assay. Here is the method: as §1
Data set [23] relates to glutamine synthetase (GS). The experiment in a line: inactivation of glutamine synthetase by βAP fragments in cytosolic fractions of neocortex (Example 11). The format is biochemical, gerbil. Conditions: 10 min incubation prior to assay. Here is the method: as §1
Data set [24] has as its system neurotoxicity. Conditions: cited from earlier work.

Bounds are passed on as bounds.

Usually solubility stands for how much of the substance goes into solution per volume. Low readings indicate little dissolved substance, high ones much dissolved substance. In general, LD50 refers to the dose expected to kill half of the subjects tested.

Take `CC(C)(C)[N+]([O-])=Cc1ccccc1S(=O)(=O)O` [Compound 2-sulfo, N-tert-butyl-α-(2-sulfophenyl) nitrone]: the “Neuronal nuclei/100 micron field” value in [1] (3.2 mg/kg i.p.) is given as 0.73 Neuronal nuclei/100 micron field; in [1] (10 mg/kg i.p.) it was 0.68 Neuronal nuclei/100 micron field; in data set [1] (32 mg/kg i.p.), 0.73 Neuronal nuclei/100 micron field; in data set [1] (50 mg/kg i.p.), 1.01 Neuronal nuclei/100 micron field; in data set [1] (100 mg/kg i.p.) it was 0.93 Neuronal nuclei/100 micron field; in data set [1] (320 mg/kg i.p.), 1.11 Neuronal nuclei/100 micron field. Besides, the “Neuronal nuclei/100 micron field” value in data set [1] (1000 mg/kg i.p.) is recorded as 0.98 Neuronal nuclei/100 micron field; in data set [2] (50 mg/kg i.p.), 0.68 Neuronal nuclei/100 micron field; in data set [2] (100 mg/kg i.p.), 0.78 Neuronal nuclei/100 micron field; in data set [2] (320 mg/kg i.p.) it was 0.81 Neuronal nuclei/100 micron field.

On to `CC(C)(C)[N+]([O-])=Cc1cccc(S(=O)(=O)O)c1` [Compound 3-sulfo], for which the “Neuronal nuclei/100 micron field” value was 0.35 Neuronal nuclei/100 micron field in [1] (3.2 mg/kg i.p.); 0.81 Neuronal nuclei/100 micron field in [1] (10 mg/kg i.p.); 1.63 Neuronal nuclei/100 micron field in data set [1] (32 mg/kg i.p.); 1.63 Neuronal nuclei/100 micron field in [1] (50 mg/kg i.p.); 1.93 Neuronal nuclei/100 micron field in [1] (100 mg/kg i.p.); 1.78 Neuronal nuclei/100 micron field in data set [1] (320 mg/kg i.p.). The “Neuronal nuclei/100 micron field” value in [1] (1000 mg/kg i.p.) is listed as 1.58 Neuronal nuclei/100 micron field; in [2] (50 mg/kg i.p.), 0.73 Neuronal nuclei/100 micron field; in data set [2] (100 mg/kg i.p.), 1.09 Neuronal nuclei/100 micron field; in data set [2] (320 mg/kg i.p.) it was 0.93 Neuronal nuclei/100 micron field.

In the case of `CC(C)(C)[N+]([O-])=Cc1ccc(S(=O)(=O)O)cc1S(=O)(=O)O` [Compound I], the “Infarct Volume” value in data set [3] (1.0 mg/kg/hr i.v.) is 16.8 mm^3; in data set [3] (10 mg/kg/hr i.v.), 12.7 mm^3; in data set [3] (100 mg/kg/hr i.v.) it was 8.3 mm^3. Besides, the “dose demonstrated to be possible” value in data set [4] was not below 1000 mg/kg/h. The “protection of GS against the effects of βAP fragments” value in [5] is recorded as “complete protection”. The effect on survival result was “no effect on survival” in data set [6] and “no effect on survival” in data set [16] (up to 300 mg/kg i.p., without adriamycin, DBA/2J). The results for the “protection for neuronal loss (neuronal density)” value in data set [7] (0.5 mg/kg single dose i.v.), in data set [7] (1.0 mg/kg single dose i.v.) and in data set [7] (10 mg/kg single dose i.v.) were 1.25, 1.75 and 2.43, respectively. Besides, the “effect on neuronal density in control gerbils” value in [7] (control gerbils without brain injury) was “Neither PBN nor Compound I. had an effect on neuronal density”. The solubility in [8] was more than 1000 mg/mL. The “errors in 8-arm radial maze” value in data set [9] (1.0 mg/kg/hr for 24 hours) was determined as 14.63 errors; in data set [9] (32 mg/kg/hr for 24 hours), 7.19 errors; in data set [9] (50 mg/kg/hr for 24 hours) it was 4.28 errors; in [9] (100 mg/kg/hr for 24 hours) it was 4.11 errors. The error levels entry in data set [9] (high doses) is on record as “error levels indistinguishable from those of nonischemic animals”. Further, the “lethality protection (% survived)” value in data set [10] (10 mg/kg) came out at 50%; in [10] (32 mg/kg) it was 75%; in data set [10] (100 mg/kg), 100%; in data set [10] (320 mg/kg), 100%. For the same compound, in [10] (Compound I: at high levels), the lethality protection entry is “complete protection”. For the same compound, the combined toxicity entry in data set [11] was “did not produce any combined toxicity”. The “Neuronal nuclei/100 micron field” value in [1] (3.2 mg/kg i.p.) is given as 1.43 Neuronal nuclei/100 micron field; in [1] (10 mg/kg i.p.) it was 2.57 Neuronal nuclei/100 micron field; in [1] (32 mg/kg i.p.), 3.53 Neuronal nuclei/100 micron field; in [1] (50 mg/kg i.p.), 4.11 Neuronal nuclei/100 micron field; in [1] (100 mg/kg i.p.), 4.18 Neuronal nuclei/100 micron field; in data set [1] (320 mg/kg i.p.) it was 4.23 Neuronal nuclei/100 micron field. Further, the “Neuronal nuclei/100 micron field” value in data set [1] (1000 mg/kg i.p.) was 4.11 Neuronal nuclei/100 micron field; in [1] (3200 mg/kg i.p.), 4.18 Neuronal nuclei/100 micron field; in data set [2] (32 mg/kg i.p.) it was 1.83 Neuronal nuclei/100 micron field; in data set [2] (50 mg/kg i.p.), 2.73 Neuronal nuclei/100 micron field; in data set [2] (100 mg/kg i.p.), 3.41 Neuronal nuclei/100 micron field; in [2] (320 mg/kg i.p.), 3.55 Neuronal nuclei/100 micron field. Besides, the “Neuronal nuclei/100 micron field” value in [2] (1000 mg/kg i.p.) is on record as 3.68 Neuronal nuclei/100 micron field. The “protection against neuronal loss” value in [1] (high dose levels) is listed as “complete protection against neuronal loss”. Also, the temperature decrease result in data set [12] is “no measurable temperature decrease”. For the same compound, in [13], the “protection (infarct volume)” value is listed as “approximately 70%”. Further, the “protection of CK against the effects of βAP fragments” value in data set [14] is “complete protection”. Besides, in data set [15], the lethality result is “no lethality”. For the same compound, in [16] (combination with adriamycin), the “maximally tolerated dose of adriamycin in combination” value was “marked increase in the maximally tolerated dose”.

Take `COc1cccc2c1C(=O)c1c(O)c3c(c(O)c1C2=O)C[C@@](O)(C(=O)CO)C[C@@H]3O[C@H]1C[C@H](N)[C@H](O)[C@H](C)O1` [adriamycin]: the LD50 in data set [17] and in [18] was 25 mg/kg each time.

With βAP 1-40: beta amyloid peptide 1-40, the cytotoxicity result in [19] is given as “produces cytotoxicity”. In addition, the oxidative stress result in data set [20] was “results in oxidative stress”. The “lesions in rat brains” value in data set [21] is “lesions are produced”.

Turning to “βAP (25-35): proposed breakdown fragment of βAP; naturally occurring 25-35 fragment (GSNKGAIIGLM; Amyloid-beta protein 42; UniProt P05067 696-706, looked up, fragment)”, in data set [22], the “inactivation of creatine kinase” value is recorded as “dose-related inactivation”. Besides, the “inactivation of glutamine synthetase” value in [23] is on record as “dose-related inactivation”. Also, the neurotoxicity result in [24] is “neurotoxic”.

Source of the values: patent US5475032A, “2,4-disulfonyl phenyl butyl nitrone, its salts, and their use as pharmaceuticals” (Oklahoma Medical Research Foundation, priority 1995, dated 1995).
